Source: US11339128B2 (Firmenich Incorporated, priority 2014, dated 2022)

Biological target: T1, T1R2/T1R3 taste receptor (Homo sapiens, UniProt Q7RTX0+Q8TE23)
T1 sequence (Q8TE23 20-839): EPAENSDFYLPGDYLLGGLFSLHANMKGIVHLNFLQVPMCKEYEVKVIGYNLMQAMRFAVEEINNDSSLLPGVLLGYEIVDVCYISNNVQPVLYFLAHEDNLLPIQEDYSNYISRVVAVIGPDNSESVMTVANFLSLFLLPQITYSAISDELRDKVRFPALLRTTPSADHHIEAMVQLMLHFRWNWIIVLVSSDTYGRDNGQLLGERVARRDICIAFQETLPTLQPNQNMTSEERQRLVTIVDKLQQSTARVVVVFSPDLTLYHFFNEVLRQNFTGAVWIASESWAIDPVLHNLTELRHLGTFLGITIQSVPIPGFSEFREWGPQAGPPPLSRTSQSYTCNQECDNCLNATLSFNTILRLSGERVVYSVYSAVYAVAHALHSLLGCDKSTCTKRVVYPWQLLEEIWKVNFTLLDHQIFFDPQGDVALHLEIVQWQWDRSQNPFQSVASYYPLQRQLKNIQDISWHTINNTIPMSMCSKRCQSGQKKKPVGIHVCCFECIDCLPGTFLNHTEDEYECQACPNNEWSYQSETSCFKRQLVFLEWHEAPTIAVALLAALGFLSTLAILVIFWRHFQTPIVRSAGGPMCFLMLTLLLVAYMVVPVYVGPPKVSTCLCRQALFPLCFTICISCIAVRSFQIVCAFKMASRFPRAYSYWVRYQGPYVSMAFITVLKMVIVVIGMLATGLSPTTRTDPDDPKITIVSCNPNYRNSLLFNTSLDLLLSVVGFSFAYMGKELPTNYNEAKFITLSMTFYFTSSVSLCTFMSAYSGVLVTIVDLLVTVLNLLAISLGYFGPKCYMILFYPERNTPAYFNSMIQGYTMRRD
T1 sequence (Q7RTX0 21-852): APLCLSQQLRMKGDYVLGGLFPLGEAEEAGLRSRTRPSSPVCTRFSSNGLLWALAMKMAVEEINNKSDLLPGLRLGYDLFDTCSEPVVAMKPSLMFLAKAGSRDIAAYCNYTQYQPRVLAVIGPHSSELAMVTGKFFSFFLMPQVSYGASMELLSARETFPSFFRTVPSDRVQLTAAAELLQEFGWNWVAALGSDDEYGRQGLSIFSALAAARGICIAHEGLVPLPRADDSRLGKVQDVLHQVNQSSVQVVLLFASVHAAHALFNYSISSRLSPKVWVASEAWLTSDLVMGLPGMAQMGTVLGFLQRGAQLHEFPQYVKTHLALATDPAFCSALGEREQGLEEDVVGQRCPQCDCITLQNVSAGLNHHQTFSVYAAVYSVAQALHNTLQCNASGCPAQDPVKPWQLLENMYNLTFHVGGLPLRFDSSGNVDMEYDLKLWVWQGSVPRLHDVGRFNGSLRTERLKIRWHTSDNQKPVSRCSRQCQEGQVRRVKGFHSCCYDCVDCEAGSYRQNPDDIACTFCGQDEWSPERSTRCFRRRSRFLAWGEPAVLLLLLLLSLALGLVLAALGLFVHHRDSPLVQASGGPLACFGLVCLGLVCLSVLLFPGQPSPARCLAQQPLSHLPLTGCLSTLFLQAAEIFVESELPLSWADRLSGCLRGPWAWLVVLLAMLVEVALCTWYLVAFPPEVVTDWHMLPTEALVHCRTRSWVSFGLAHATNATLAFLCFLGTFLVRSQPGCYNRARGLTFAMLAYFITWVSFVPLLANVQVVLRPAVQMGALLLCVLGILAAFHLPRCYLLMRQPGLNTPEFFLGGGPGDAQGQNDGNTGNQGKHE
Assay: Receptor-based assay: sweetener EC50 enhancement ratio with and without test compound
Type: cell-based
Details: for Sucrose Enhancement EC50 Ratio: sweetener sucrose; for Fructose Enhancement EC50 Ratio: sweetener fructose; for Sucralose Enhancement EC50 Ratio: sweetener sucralose
Description: Potencies (EC50 values) for the sweeteners sucrose, sucralose, and fructose were measured against the T1R2/T1R3 taste receptor. EC50 was determined using the sweetener alone and in the presence of 1 μM, 3 μM, 10 μM, or 50 μM of test compound. EC50 ratios were calculated by the ratio of potency with and without the test compound. An “A” value indicates an enhancement ratio of greater than 1 and less than 10. A “B” value indicates an enhancement ratio from 10 to 20. A “C” value indicates an enhancement ratio greater than 20.

SMILES | Sucrose Enhancement EC50 Ratio (1 μM test compound) | Sucrose Enhancement EC50 Ratio (3 μM test compound) | Sucrose Enhancement EC50 Ratio (10 μM test compound) | Fructose Enhancement EC50 Ratio (10 μM test compound) | Sucralose Enhancement EC50 Ratio (3 μM test compound) | Sucralose Enhancement EC50 Ratio (10 μM test compound) | Fructose Enhancement EC50 Ratio (50 μM test compound)
Cc1cnn(CC(=O)N[C@H]2CC[C@H](Oc3cccc4nc(C)c(C(=O)O)c(N)c34)CC2)c1 [Compound 330] | A (an enhancement ratio of greater than 1 and less than 10) | A (an enhancement ratio of greater than 1 and less than 10) | A (an enhancement ratio of greater than 1 and less than 10) | – | – | – | –
CCC(CC)COCC(=O)N[C@H]1CC[C@H](Oc2cccc3nc(C)c(C(=O)O)c(N)c23)CC1 [Compound 331] | A (an enhancement ratio of greater than 1 and less than 10) | A (an enhancement ratio of greater than 1 and less than 10) | C (an enhancement ratio greater than 20) | – | – | – | –
CCOCCOCC(=O)N[C@H]1CC[C@H](Oc2cccc3nc(C)c(C(=O)O)c(N)c23)CC1 [Compound 332] | A (an enhancement ratio of greater than 1 and less than 10) | B (an enhancement ratio from 10 to 20) | – | – | – | – | –
Cc1nc2cccc(O[C@H]3CC[C@H](NC(=O)COCCOCc4ccccc4)CC3)c2c(N)c1C(=O)O [Compound 333] | A (an enhancement ratio of greater than 1 and less than 10) | B (an enhancement ratio from 10 to 20) | – | – | – | – | –
Cc1nc2cccc(O[C@H]3CC[C@H](NC(=O)COCCO)CC3)c2c(N)c1C(=O)O [Compound 334] | A (an enhancement ratio of greater than 1 and less than 10) | A (an enhancement ratio of greater than 1 and less than 10) | C (an enhancement ratio greater than 20) | A (an enhancement ratio of greater than 1 and less than 10) | – | – | –
CCCCOCC(=O)N[C@H]1CC[C@H](Oc2cccc3nc(C)c(C(=O)O)c(N)c23)CC1 [Compound 335] | B (an enhancement ratio from 10 to 20) | C (an enhancement ratio greater than 20) | – | – | C (an enhancement ratio greater than 20) | – | –
COCCOCC(=O)N[C@H]1CC[C@H](Oc2cccc3nc(C)c(C(=O)O)c(N)c23)CC1 [Compound 336] | A (an enhancement ratio of greater than 1 and less than 10) | C (an enhancement ratio greater than 20) | – | – | B (an enhancement ratio from 10 to 20) | – | –
Cc1nc2cccc(O[C@H]3CC[C@H](NC(=O)COCC4CCCCC4)CC3)c2c(N)c1C(=O)O [Compound 337] | A (an enhancement ratio of greater than 1 and less than 10) | C (an enhancement ratio greater than 20) | – | – | – | – | –
Cc1nc2cccc(O[C@H]3CC[C@H](NC(=O)COCC4CCCC4)CC3)c2c(N)c1C(=O)O [Compound 338] | A (an enhancement ratio of greater than 1 and less than 10) | – | – | – | – | – | –
Cc1nc2cccc(O[C@H]3CC[C@H](NC(=O)COCC4CCOCC4)CC3)c2c(N)c1C(=O)O [Compound 339] | A (an enhancement ratio of greater than 1 and less than 10) | B (an enhancement ratio from 10 to 20) | – | – | – | – | –
Cc1nc2cccc(O[C@H]3CC[C@H](NC(=O)COCCC(C)C)CC3)c2c(N)c1C(=O)O [Compound 340] | B (an enhancement ratio from 10 to 20) | B (an enhancement ratio from 10 to 20) | – | – | A (an enhancement ratio of greater than 1 and less than 10) | – | –
CCC(CC)OCC(=O)N[C@H]1CC[C@H](Oc2cccc3nc(C)c(C(=O)O)c(N)c23)CC1 [Compound 341] | A (an enhancement ratio of greater than 1 and less than 10) | B (an enhancement ratio from 10 to 20) | – | – | A (an enhancement ratio of greater than 1 and less than 10) | – | –
CCNCC(=O)N[C@H]1CC[C@H](Oc2cccc3nc(C)c(C(=O)O)c(N)c23)CC1.Cl [Compound 400, 4-Amino-5-((trans-4-(2-(ethylamino)acetamido)cyclohexyl)oxy)-2-methyl quinolone-3-carboxylic acid (HCl)] | A (an enhancement ratio of greater than 1 and less than 10) | A (an enhancement ratio of greater than 1 and less than 10) | A (an enhancement ratio of greater than 1 and less than 10) | A (an enhancement ratio of greater than 1 and less than 10) | – | A (an enhancement ratio of greater than 1 and less than 10) | A (an enhancement ratio of greater than 1 and less than 10)
Cc1nc2cccc(O[C@H]3CC[C@H](NC(=O)CN)CC3)c2c(N)c1C(=O)O [Compound 401] | A (an enhancement ratio of greater than 1 and less than 10) | A (an enhancement ratio of greater than 1 and less than 10) | A (an enhancement ratio of greater than 1 and less than 10) | A (an enhancement ratio of greater than 1 and less than 10) | – | A (an enhancement ratio of greater than 1 and less than 10) | –
CNCC(=O)N[C@H]1CC[C@H](Oc2cccc3nc(C)c(C(=O)O)c(N)c23)CC1 [Compound 402] | A (an enhancement ratio of greater than 1 and less than 10) | A (an enhancement ratio of greater than 1 and less than 10) | B (an enhancement ratio from 10 to 20) | A (an enhancement ratio of greater than 1 and less than 10) | – | A (an enhancement ratio of greater than 1 and less than 10) | –
CN[C@@H](C)C(=O)N[C@H]1CC[C@H](Oc2cccc3nc(C)c(C(=O)O)c(N)c23)CC1.Cl [Compound 500] | A (an enhancement ratio of greater than 1 and less than 10) | A (an enhancement ratio of greater than 1 and less than 10) | A (an enhancement ratio of greater than 1 and less than 10) | – | – | A (an enhancement ratio of greater than 1 and less than 10) | A (an enhancement ratio of greater than 1 and less than 10)
